In BindingDB's records for doi:10.1021/jm049237m (Wyeth Research, 2004):

Molecular target: Proto-oncogene tyrosine-protein kinase Src (Homo sapiens, UniProt P12931)
Assay: Homogeneous Time-resolved Fluorescence (HTRF) Assay
Conditions: pH 7.5; 37 °C
Description: Kinase assays were performed using the europium/APC detection format (LANCE, Perkin Elmer). HTRF is based on the proximity of europium cryptate (donor fluorophore)-labeled antiphosphotyrosine and streptavidin labeled with APC(allophycocyanin), which have been brought together by a binding reaction. When the two entities come into close proximity and upon excitation, energy transfer occurs and APC re-emits at 665 nm.

Sequence of Proto-oncogene tyrosine-protein kinase Src (P12931 2-536 limits assumed): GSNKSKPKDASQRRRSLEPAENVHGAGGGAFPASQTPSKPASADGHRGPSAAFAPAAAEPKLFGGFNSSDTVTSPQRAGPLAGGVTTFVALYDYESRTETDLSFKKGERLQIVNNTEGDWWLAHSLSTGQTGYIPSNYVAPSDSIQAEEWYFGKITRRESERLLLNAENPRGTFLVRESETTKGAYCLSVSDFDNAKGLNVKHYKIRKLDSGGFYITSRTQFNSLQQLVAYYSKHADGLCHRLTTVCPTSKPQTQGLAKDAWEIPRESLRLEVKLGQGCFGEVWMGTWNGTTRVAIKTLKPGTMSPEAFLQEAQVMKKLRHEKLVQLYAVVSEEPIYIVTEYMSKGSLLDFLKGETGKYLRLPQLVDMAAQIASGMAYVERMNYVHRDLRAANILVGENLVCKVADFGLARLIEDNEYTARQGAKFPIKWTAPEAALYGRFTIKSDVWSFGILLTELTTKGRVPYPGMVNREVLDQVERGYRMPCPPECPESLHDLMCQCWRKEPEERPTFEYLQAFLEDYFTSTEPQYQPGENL

- IC50: > 10 µM
Compound: COc1cc(Nc2c(C#N)cnc3cc(-c4ccccc4CN4CCN(C)CC4)sc23)c(Cl)cc1Cl [7-[(2,4-dichloro-5-methoxyphenyl)amino]-2-{2-[(4-methylpiperazin-1-yl)methyl]phenyl}thieno[3,2-b]pyridine-6-carbonitrile]
